Test results as given in PubChem BioAssay (NCI).
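96-well plates; 48 h exposure; 5 concentrations. Endpoints by linear interpolation between flanking doses. Not reached: highest tested concentration assigned. Here, GI50 denotes the concentration required for 50% inhibition of growth. The concentration for full growth arrest is given as TGI.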

Experiments:
Experiment in all cases: DTP human tumour cell line panel, 48 h
UACC-257 melanoma = system: UACC-257 melanoma
NCI/ADR-RES ovarian = system: NCI/ADR-RES ovarian
SK-MEL-2 melanoma = system: SK-MEL-2 melanoma
HS 578T breast = system: HS 578T breast
EKVX NSCLC = system: EKVX NSCLC
NCI-H522 lung = system: NCI-H522 lung
SK-MEL-28 melanoma = system: SK-MEL-28 melanoma
MDA-MB-435 = system: MDA-MB-435
IGROV1 ovarian = system: IGROV1 ovarian
HCC-2998 colon = system: HCC-2998 colon
CAKI-1 renal = system: CAKI-1 renal
TK-10 renal = system: TK-10 renal
NCI-H226 lung = system: NCI-H226 lung
DU-145 prostate = system: DU-145 prostate
OVCAR-5 ovarian = system: OVCAR-5 ovarian
SF-539 CNS = system: SF-539 CNS
MALME-3M melanoma = system: MALME-3M melanoma
A498 renal = system: A498 renal
SF-295 CNS = system: SF-295 CNS
KM12 colon = system: KM12 colon
K-562 leukemia = system: K-562 leukemia
RXF 393 renal = system: RXF 393 renal
SK-MEL-5 melanoma = system: SK-MEL-5 melanoma
COLO 205 colon = system: COLO 205 colon
SK-OV-3 ovarian = system: SK-OV-3 ovarian
HT29 colon = system: HT29 colon
UO-31 renal = system: UO-31 renal
SNB-75 CNS = system: SNB-75 CNS
LOX IMVI melanoma = system: LOX IMVI melanoma
SN12C renal = system: SN12C renal
M14 melanoma = system: M14 melanoma
HCT-15 colon = system: HCT-15 colon
786-0 renal = system: 786-0 renal
MCF7 breast = system: MCF7 breast
HOP-62 NSCLC = system: HOP-62 NSCLC
SW-620 colon = system: SW-620 colon
MDA-MB-231 breast = system: MDA-MB-231 breast
ACHN renal = system: ACHN renal
OVCAR-8 ovarian = system: OVCAR-8 ovarian
NCI-H23 lung = system: NCI-H23 lung
HCT-116 colon = system: HCT-116 colon
NCI-H460 lung = system: NCI-H460 lung
SNB-19 CNS = system: SNB-19 CNS
U251 CNS = system: U251 CNS
RPMI-8226 leukemia = system: RPMI-8226 leukemia
PC-3 prostate = system: PC-3 prostate
HOP-92 NSCLC = system: HOP-92 NSCLC
OVCAR-4 ovarian = system: OVCAR-4 ovarian
SF-268 CNS = system: SF-268 CNS
A549 NSCLC = system: A549 NSCLC
OVCAR-3 ovarian = system: OVCAR-3 ovarian
UACC-62 melanoma = system: UACC-62 melanoma
SR leukemia = system: SR leukemia
HL-60(TB) leukemia = system: HL-60(TB) leukemia
T-47D breast = system: T-47D breast

Compound: Clc1ccc2c(N3CCC(CCC4CCN(c5ncnc6cc(Cl)ccc56)CC4)CC3)ncnc2c1
- GI50 (UACC-257 melanoma): 61000 nM

Compound: COc1cc(Cn2c3c(c4c(C(=O)NCCN(C)C)c(O)ccc42)C(=O)c2ccccc2C3=O)cc(OC)c1
- TGI (NCI/ADR-RES ovarian): 5210 nM
- TGI (SK-MEL-2 melanoma): 3360 nM
- TGI (HS 578T breast): 4550 nM
- TGI (EKVX NSCLC): 3320 nM
- TGI (NCI-H522 lung): 3210 nM
- TGI (SK-MEL-28 melanoma): 3430 nM
- TGI (MDA-MB-435): 3400 nM
- TGI (IGROV1 ovarian): 3220 nM
- TGI (UACC-257 melanoma): 3970 nM
- TGI (HCC-2998 colon): 2350 nM
- TGI (CAKI-1 renal): 3260 nM
- TGI (TK-10 renal): 3140 nM
- TGI (NCI-H226 lung): 48300 nM
- TGI (DU-145 prostate): 3200 nM
- TGI (OVCAR-5 ovarian): 3200 nM
- TGI (SF-539 CNS): 3400 nM
- TGI (MALME-3M melanoma): 3050 nM
- TGI (A498 renal): 3450 nM
- TGI (SF-295 CNS): 3450 nM
- TGI (KM12 colon): 3200 nM
- TGI (K-562 leukemia): > 100000 nM
- TGI (RXF 393 renal): 5020 nM
- TGI (SK-MEL-5 melanoma): 3270 nM
- TGI (COLO 205 colon): 3340 nM
- TGI (SK-OV-3 ovarian): 3880 nM
- TGI (HT29 colon): 3450 nM
- TGI (UO-31 renal): 3230 nM

Compound: COc1ccc(CC2NC(=O)/C=C/CC(C(C)C3OC3c3ccccc3)OC(=O)C(CC(C)C)OC(=O)C(C)CNC2=O)cc1Cl (centres undefined)
- TGI (SNB-75 CNS): > 100 nM
- TGI (LOX IMVI melanoma): > 100 nM
- TGI (SN12C renal): > 100 nM
- TGI (SK-MEL-2 melanoma): > 100 nM
- TGI (NCI-H522 lung): > 100 nM
- TGI (SK-MEL-28 melanoma): > 100 nM
- TGI (MDA-MB-435): 0.0158 nM
- TGI (M14 melanoma): 1.41 nM
- TGI (UACC-257 melanoma): > 100 nM
- TGI (HCC-2998 colon): 2.59 nM
- TGI (CAKI-1 renal): > 100 nM
- TGI (TK-10 renal): > 100 nM
- TGI (HCT-15 colon): > 100 nM
- TGI (NCI-H226 lung): 0.127 nM
- TGI (DU-145 prostate): > 100 nM
- TGI (786-0 renal): > 100 nM
- TGI (MCF7 breast): > 100 nM
- TGI (HOP-62 NSCLC): > 100 nM
- TGI (SW-620 colon): > 100 nM
- TGI (OVCAR-5 ovarian): > 100 nM
- TGI (MDA-MB-231 breast): 0.035 nM
- TGI (ACHN renal): > 100 nM
- TGI (OVCAR-8 ovarian): > 100 nM
- TGI (SF-539 CNS): 0.0443 nM
- TGI (MALME-3M melanoma): > 100 nM
- TGI (NCI-H23 lung): > 100 nM
- TGI (HCT-116 colon): > 100 nM
- TGI (A498 renal): 0.0366 nM
- TGI (KM12 colon): > 100 nM
- TGI (K-562 leukemia): > 41.6 nM
- TGI (NCI-H460 lung): 6.96 nM
- TGI (SNB-19 CNS): > 100 nM
- TGI (SK-MEL-5 melanoma): 0.657 nM
- TGI (U251 CNS): > 100 nM
- TGI (COLO 205 colon): 0.0212 nM
- TGI (SK-OV-3 ovarian): > 100 nM
- TGI (RPMI-8226 leukemia): > 100 nM
- TGI (HT29 colon): 0.108 nM
- TGI (PC-3 prostate): > 100 nM
- TGI (HOP-92 NSCLC): > 100 nM
- TGI (OVCAR-4 ovarian): > 100 nM
- TGI (SF-268 CNS): > 100 nM
- TGI (A549 NSCLC): > 100 nM
- TGI (OVCAR-3 ovarian): 0.584 nM

Compound: CCCCCCCCCCCC[n+]1ccc(CCCCCCCCC)cc1
- GI50 (NCI/ADR-RES ovarian): 1860 nM
- TGI (NCI/ADR-RES ovarian): 3620 nM
- GI50 (UACC-62 melanoma): 465 nM
- TGI (UACC-62 melanoma): 1730 nM
- GI50 (SNB-75 CNS): 1260 nM
- TGI (SNB-75 CNS): 2570 nM
- GI50 (NCI-H522 lung): 695 nM
- TGI (NCI-H522 lung): 2190 nM
- GI50 (SK-MEL-28 melanoma): 1310 nM
- TGI (SK-MEL-28 melanoma): 2860 nM
- GI50 (CAKI-1 renal): 1510 nM
- TGI (CAKI-1 renal): 2930 nM
- GI50 (TK-10 renal): 1350 nM
- TGI (TK-10 renal): 2760 nM
- GI50 (DU-145 prostate): 1370 nM
- TGI (DU-145 prostate): 2750 nM
- GI50 (786-0 renal): 1380 nM
- TGI (786-0 renal): 3070 nM
- GI50 (HOP-62 NSCLC): 1410 nM
- TGI (HOP-62 NSCLC): 2900 nM
- GI50 (NCI-H23 lung): 390 nM
- TGI (NCI-H23 lung): 1790 nM
- GI50 (A498 renal): 1020 nM
- TGI (A498 renal): 2370 nM
- GI50 (SR leukemia): 1470 nM
- TGI (SR leukemia): 4550 nM
- GI50 (RXF 393 renal): 1360 nM
- TGI (RXF 393 renal): 2860 nM
- GI50 (SK-OV-3 ovarian): 1510 nM
- TGI (SK-OV-3 ovarian): 2890 nM
- GI50 (HL-60(TB) leukemia): 362 nM
- TGI (HL-60(TB) leukemia): 1830 nM
- GI50 (PC-3 prostate): 597 nM
- TGI (PC-3 prostate): 1930 nM
- GI50 (HOP-92 NSCLC): 96.8 nM
- TGI (HOP-92 NSCLC): 944 nM
- GI50 (T-47D breast): 280 nM
- TGI (T-47D breast): 1540 nM
- GI50 (UO-31 renal): 1270 nM
- TGI (UO-31 renal): 2590 nM
- GI50 (SF-268 CNS): 1380 nM
- TGI (SF-268 CNS): 2940 nM
